Measurements published in ChEMBL document CHEMBL4680187, “Optimization of EphA2 antagonists based on a lithocholic acid core led to the identification of UniPR505, a new 3α-carbamoyloxy derivative with antiangiogenetic properties” (Eur J Med Chem, 2020).
Activity calls are given as the source filed them. No cut-off for these calls is given here.

Tests used:
Ephrin type-A receptor 2 = Ephrin type-A receptor 2 (Mus musculus, UniProt Q03145); test: Displacement of biotinylated ephrin-A1-Fc from recombinant mouse c-terminal His6-tagged EphA2 Fc (Ala22 to Ala535 residues) preincubated for 1 hr followed by ephrin-A1-FC addition and measured after 4 hrs by ELISA
PC-3 = test: Cytotoxicity against human PC3 cells after 2 hrs by LDH assay; format: cell-based; conditions: pc-3, 2 h
Ephrin type-A receptor 1 = biological target: T1, Ephrin type-A receptor 1 (Homo sapiens, UniProt P21709); test: Displacement of biotinylated ephrin-A1-Fc from human EphA1 Fc preincubated for 1 hr followed by ephrin-A1-FC addition and measured after 4 hrs by ELISA
T1 sequence (P21709 whole entry): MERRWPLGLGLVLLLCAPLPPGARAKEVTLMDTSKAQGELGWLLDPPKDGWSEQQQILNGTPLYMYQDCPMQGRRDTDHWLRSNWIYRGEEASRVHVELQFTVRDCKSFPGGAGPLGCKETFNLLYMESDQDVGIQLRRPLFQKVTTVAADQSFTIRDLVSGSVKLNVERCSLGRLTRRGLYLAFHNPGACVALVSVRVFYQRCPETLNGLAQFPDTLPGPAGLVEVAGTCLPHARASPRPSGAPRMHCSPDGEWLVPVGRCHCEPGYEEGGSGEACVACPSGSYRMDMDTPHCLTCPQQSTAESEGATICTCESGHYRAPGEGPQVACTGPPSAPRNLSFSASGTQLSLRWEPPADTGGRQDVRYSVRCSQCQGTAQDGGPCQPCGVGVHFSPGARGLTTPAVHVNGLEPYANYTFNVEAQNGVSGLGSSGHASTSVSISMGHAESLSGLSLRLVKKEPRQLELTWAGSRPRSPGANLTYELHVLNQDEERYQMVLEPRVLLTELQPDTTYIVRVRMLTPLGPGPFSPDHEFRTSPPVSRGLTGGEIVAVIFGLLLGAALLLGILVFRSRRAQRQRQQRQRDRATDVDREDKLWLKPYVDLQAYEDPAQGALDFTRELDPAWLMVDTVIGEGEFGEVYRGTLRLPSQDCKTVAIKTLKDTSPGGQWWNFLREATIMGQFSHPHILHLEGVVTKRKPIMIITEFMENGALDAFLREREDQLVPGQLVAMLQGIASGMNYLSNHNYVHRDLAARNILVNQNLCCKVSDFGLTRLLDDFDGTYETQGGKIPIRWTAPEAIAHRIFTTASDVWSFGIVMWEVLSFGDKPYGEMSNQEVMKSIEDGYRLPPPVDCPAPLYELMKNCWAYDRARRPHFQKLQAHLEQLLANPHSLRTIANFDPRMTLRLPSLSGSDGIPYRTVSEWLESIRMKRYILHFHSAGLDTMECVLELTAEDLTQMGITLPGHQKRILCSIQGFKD

Ephrin type-A receptor 4 = Ephrin type-A receptor 4 (Mus musculus, UniProt Q03137); test: Displacement of biotinylated ephrin-A1-Fc from mouse EphA4 Fc preincubated for 1 hr followed by ephrin-A1-FC addition and measured after 4 hrs by ELISA
Ephrin type-A receptor 7 = Ephrin type-A receptor 7 (Mus musculus, UniProt Q61772); test: Displacement of biotinylated ephrin-A1-Fc from mouse EphA7 Fc preincubated for 1 hr followed by ephrin-A1-FC addition and measured after 4 hrs by ELISA
Ephrin type-B receptor 4 = biological target: T2, Ephrin type-B receptor 4 (Mus musculus, UniProt P54761); test: Displacement of biotinylated ephrin-B1-Fc from mouse EphB4 Fc preincubated for 1 hr followed by ephrin-B1-FC addition and measured after 4 hrs by ELISA
T2 sequence (P54761 whole entry): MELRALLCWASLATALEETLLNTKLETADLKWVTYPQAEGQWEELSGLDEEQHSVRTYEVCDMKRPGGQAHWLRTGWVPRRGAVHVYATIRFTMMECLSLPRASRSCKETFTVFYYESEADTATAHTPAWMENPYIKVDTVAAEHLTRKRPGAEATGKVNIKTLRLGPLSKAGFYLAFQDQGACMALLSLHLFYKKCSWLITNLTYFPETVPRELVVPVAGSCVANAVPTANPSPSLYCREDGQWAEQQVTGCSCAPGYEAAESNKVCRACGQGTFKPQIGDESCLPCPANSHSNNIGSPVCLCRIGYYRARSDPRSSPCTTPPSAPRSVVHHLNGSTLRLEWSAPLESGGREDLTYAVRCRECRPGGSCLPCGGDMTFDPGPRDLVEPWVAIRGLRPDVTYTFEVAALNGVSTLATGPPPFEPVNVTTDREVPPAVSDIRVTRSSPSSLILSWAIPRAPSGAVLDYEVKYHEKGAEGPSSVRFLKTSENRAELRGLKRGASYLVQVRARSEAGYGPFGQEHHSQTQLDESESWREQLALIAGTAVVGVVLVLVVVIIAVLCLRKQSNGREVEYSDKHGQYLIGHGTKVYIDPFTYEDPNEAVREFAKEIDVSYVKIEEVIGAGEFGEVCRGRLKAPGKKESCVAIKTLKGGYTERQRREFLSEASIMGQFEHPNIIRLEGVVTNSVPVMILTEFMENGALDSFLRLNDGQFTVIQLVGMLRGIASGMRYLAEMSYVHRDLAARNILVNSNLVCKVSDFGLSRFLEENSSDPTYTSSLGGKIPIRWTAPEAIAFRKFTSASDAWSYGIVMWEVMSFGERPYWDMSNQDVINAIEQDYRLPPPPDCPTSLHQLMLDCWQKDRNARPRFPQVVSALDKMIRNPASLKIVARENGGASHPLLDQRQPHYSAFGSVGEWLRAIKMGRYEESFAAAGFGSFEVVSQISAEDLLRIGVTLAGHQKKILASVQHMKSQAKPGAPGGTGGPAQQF

HUVEC = test: Cytotoxicity against HUVEC cells after 2 to 16 hrs by LDH assay; format: cell-based; conditions: human, time 2-16 hrs
Chorioallantoic membrane = test: Antiangiogenic activity in Leghorn chicken fertilized egg chorioallantoic membrane assessed as reduction in VEGF stimulated neovascularization at 10 uM measured after 3 days by CAM assay; format: functional, tissue-based; conditions: Gallus gallus, time 3.0 day

Sequence of Ephrin type-A receptor 2 (Q03145 whole entry): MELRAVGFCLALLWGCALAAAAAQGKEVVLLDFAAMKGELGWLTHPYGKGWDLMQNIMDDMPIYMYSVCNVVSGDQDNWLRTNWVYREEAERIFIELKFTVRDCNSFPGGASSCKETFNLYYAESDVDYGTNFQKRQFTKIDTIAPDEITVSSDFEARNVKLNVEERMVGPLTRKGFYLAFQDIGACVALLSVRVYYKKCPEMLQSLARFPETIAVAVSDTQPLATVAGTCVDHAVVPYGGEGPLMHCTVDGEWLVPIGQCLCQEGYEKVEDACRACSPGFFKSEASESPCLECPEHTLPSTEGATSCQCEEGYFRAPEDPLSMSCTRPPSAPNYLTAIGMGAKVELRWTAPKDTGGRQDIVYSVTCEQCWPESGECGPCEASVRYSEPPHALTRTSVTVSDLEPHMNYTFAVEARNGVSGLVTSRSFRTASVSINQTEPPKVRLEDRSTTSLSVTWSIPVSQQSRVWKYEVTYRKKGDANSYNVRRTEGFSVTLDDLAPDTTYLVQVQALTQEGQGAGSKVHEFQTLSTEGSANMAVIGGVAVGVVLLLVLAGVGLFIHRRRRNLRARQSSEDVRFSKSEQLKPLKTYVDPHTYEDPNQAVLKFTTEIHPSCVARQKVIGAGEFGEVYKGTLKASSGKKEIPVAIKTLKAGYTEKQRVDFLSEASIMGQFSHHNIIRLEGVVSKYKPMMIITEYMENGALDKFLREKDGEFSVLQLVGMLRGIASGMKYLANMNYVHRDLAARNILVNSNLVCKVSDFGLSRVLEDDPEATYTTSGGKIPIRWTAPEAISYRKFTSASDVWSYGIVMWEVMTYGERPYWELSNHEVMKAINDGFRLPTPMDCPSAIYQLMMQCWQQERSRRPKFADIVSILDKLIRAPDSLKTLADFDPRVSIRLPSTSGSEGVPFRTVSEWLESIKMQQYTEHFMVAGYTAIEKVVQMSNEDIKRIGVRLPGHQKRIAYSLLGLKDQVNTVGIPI
Sequence of Ephrin type-A receptor 7 (Q61772 whole entry): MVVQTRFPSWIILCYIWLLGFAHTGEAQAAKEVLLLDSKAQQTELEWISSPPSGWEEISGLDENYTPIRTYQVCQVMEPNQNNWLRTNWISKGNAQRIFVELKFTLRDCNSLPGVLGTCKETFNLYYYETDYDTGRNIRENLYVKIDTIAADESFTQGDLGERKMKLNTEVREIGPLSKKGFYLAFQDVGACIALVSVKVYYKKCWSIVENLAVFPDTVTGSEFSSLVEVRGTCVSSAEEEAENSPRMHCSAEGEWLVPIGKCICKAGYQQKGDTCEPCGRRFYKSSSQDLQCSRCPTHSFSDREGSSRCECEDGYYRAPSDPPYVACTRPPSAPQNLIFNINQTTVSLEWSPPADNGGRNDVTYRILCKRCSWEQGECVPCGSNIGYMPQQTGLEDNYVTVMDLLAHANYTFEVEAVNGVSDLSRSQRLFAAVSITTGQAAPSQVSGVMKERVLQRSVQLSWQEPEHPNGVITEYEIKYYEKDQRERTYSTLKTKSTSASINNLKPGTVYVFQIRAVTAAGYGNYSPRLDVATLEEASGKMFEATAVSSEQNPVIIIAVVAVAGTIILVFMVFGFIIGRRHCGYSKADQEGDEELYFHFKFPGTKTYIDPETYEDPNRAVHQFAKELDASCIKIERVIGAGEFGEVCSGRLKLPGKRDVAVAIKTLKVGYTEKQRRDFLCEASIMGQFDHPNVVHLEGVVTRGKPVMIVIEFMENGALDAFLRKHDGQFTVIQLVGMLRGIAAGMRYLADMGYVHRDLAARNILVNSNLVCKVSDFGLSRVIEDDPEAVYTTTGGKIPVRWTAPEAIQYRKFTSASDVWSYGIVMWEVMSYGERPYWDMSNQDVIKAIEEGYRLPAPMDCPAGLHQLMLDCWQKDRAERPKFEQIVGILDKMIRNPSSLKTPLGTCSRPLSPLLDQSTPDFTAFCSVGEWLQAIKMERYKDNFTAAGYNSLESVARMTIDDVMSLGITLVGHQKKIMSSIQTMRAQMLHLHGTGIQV
Sequence of Ephrin type-A receptor 4 (Q03137 whole entry): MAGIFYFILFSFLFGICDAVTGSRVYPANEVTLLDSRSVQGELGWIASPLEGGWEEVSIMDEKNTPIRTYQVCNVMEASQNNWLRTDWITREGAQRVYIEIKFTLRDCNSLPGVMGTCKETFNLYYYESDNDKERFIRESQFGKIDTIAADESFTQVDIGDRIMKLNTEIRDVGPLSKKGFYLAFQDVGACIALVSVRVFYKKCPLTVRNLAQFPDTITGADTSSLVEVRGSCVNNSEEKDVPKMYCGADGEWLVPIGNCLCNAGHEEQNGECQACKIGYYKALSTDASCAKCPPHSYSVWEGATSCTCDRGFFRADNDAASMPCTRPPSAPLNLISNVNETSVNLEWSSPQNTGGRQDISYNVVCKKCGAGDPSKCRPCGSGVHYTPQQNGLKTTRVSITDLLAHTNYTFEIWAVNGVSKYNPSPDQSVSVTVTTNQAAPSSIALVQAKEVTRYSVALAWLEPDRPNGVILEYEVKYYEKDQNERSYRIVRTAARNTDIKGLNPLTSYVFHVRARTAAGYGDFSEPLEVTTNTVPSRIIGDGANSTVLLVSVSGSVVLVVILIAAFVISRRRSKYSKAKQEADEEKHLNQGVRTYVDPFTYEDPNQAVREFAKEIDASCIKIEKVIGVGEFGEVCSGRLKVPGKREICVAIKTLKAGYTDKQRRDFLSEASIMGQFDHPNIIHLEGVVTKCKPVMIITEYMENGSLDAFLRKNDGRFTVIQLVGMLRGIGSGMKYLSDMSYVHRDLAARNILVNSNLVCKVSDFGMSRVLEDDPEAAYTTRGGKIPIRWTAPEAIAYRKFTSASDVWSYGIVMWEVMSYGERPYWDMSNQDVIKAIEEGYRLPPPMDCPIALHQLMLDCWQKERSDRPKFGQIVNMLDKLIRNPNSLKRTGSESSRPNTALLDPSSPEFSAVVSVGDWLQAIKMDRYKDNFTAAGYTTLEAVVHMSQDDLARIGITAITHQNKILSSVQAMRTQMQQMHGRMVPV

IC50 (Ephrin type-A receptor 2): 0.95 µM | IC50 (Ephrin type-A receptor 1): > 30 µM | IC50 (Ephrin type-A receptor 4): 6.4 µM | IC50 (Ephrin type-A receptor 7): > 30 µM | IC50 (Ephrin type-B receptor 4): > 30 µM
SMILES: CCNC(=O)O[C@@H]1CC[C@@]2(C)[C@H](CC[C@@H]3[C@@H]2CC[C@]2(C)[C@@H]([C@H](C)CCC(=O)N[C@H](CC(=O)O)Cc4c[nH]c5ccccc45)CC[C@@H]32)C1
Activity (PC-3): Non-Toxic | Activity (HUVEC): Non-Toxic | Activity (Chorioallantoic membrane): Active
